BindingDB's records for doi:10.1016/j.bmcl.2010.02.003 (Boehringer Ingelheim (Canada), 2010)

How the values were obtained:
Cytochrome P450 1A2 = target: T1, Cytochrome P450 1A2 (Homo sapiens, UniProt P05177); test: Inhibition of CYP1A2
T1 sequence (P05177 whole entry): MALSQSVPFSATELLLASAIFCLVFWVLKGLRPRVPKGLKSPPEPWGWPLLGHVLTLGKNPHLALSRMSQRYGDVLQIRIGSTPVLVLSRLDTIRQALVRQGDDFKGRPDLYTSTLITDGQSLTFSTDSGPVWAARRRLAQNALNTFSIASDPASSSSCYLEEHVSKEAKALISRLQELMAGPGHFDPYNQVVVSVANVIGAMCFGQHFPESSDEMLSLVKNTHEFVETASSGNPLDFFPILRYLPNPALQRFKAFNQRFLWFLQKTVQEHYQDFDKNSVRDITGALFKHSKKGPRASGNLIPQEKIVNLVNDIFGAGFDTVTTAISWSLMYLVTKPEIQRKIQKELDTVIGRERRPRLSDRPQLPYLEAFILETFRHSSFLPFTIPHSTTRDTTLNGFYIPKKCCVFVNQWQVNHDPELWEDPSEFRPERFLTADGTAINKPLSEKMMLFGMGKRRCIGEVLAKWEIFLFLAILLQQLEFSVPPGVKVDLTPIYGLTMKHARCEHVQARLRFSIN

Cytochrome P450 3A4 = Cytochrome P450 3A4 (Homo sapiens, UniProt P08684); test: Inhibition of CYP3A4
Sequence of Cytochrome P450 3A4 (P08684 whole entry): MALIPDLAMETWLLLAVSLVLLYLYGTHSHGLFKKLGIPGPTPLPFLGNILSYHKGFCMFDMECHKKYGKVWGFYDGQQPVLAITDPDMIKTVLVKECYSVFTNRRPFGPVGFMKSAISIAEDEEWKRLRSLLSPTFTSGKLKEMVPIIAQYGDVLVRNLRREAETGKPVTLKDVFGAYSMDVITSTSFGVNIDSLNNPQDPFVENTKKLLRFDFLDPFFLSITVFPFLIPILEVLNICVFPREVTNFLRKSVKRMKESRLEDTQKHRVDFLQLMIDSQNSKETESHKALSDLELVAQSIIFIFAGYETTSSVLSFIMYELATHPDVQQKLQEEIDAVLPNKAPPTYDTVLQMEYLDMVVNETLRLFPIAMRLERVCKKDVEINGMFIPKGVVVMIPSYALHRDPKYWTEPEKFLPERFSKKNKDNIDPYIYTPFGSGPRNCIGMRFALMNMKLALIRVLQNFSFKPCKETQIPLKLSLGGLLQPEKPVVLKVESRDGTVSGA

Cytochrome P450 2D6 = Cytochrome P450 2D6 (Homo sapiens, UniProt P10635); test: Inhibition of CYP2D6
Sequence of Cytochrome P450 2D6 (P10635 whole entry): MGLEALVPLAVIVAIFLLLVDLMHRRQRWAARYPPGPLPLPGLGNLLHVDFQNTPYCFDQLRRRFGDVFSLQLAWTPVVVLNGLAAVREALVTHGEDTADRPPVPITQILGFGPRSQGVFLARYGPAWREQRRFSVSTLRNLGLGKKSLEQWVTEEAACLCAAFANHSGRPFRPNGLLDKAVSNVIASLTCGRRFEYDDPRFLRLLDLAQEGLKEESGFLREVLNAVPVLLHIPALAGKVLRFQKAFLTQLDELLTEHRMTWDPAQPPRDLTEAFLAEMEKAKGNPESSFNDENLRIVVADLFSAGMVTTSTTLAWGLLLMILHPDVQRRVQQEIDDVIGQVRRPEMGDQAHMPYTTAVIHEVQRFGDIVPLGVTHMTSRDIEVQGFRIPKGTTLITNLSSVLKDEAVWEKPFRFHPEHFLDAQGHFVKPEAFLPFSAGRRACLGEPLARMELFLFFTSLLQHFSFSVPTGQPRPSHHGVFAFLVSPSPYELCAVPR

IC50 (Cytochrome P450 1A2) | IC50 (Cytochrome P450 3A4) | IC50 (Cytochrome P450 2D6) | SMILES
> 30 µM | – | – | O=C(N[C@@H](Cc1c[nH]c2ccc(O)cc12)c1cscn1)c1ccc2c(c1)nc(-c1ccoc1)n2C1CCCCC1 [1-cyclohexyl-2-(furan-3-yl)-N-((S)-2-(5-hydroxy-1H-indol-3-yl)-1-(thiazol-4-yl)ethyl)-1H-benzo[d]imidazole-5-carboxamide]
> 30 µM | > 30 µM | > 30 µM | O=C(O)/C=C/c1ccc(NC(=O)C2(NC(=O)c3ccc4c(c3)nc(-c3ccccn3)n4C3CCCCC3)CCCC2)cc1 [3-(4-(1-(1-cyclohexyl-2-(pyridin-2-yl)-1H-benzo[d]imidazole-5-carboxamido)cyclopentanecarboxamido)phenyl)acrylic acid]
> 30 µM | > 30 µM | > 30 µM | O=C(O)/C=C/c1ccc(NC(=O)C2(NC(=O)c3ccc4c(c3)nc(-c3ccoc3)n4C3CCCCC3)CCCC2)cc1 [3-(4-(1-(1-cyclohexyl-2-(furan-3-yl)-1H-benzo[d]imidazole-5-carboxamido)cyclopentanecarboxamido)phenyl)acrylic acid]
